Results published in ChEMBL document CHEMBL1139621, “Acyclic cyanamide-based inhibitors of cathepsin K” (Bioorg Med Chem Lett, 2005).

How the values were obtained:
Cathepsin K [1] = target: T1, Cathepsin K (Homo sapiens, UniProt P43235); test: Inhibition constant against human cathepsin K
T1 sequence (P43235 whole entry): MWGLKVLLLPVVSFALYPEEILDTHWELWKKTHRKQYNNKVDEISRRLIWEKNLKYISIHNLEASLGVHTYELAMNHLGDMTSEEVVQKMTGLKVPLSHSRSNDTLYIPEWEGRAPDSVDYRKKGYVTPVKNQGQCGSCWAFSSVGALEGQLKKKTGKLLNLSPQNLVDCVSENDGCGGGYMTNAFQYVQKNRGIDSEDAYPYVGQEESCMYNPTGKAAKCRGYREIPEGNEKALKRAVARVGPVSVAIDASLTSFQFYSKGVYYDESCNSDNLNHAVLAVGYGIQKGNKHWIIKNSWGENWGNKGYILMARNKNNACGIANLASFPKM

Procathepsin L = Procathepsin L (Homo sapiens, UniProt P07711); test: Inhibition constant against human cathepsin L using Cbz-Phe-Arg-AMC
Pro-cathepsin H = target: T2, Pro-cathepsin H (Homo sapiens, UniProt P09668); test: Inhibition constant against human cathepsin H using L-Arg-b-naphthalamide
T2 sequence (P09668 whole entry): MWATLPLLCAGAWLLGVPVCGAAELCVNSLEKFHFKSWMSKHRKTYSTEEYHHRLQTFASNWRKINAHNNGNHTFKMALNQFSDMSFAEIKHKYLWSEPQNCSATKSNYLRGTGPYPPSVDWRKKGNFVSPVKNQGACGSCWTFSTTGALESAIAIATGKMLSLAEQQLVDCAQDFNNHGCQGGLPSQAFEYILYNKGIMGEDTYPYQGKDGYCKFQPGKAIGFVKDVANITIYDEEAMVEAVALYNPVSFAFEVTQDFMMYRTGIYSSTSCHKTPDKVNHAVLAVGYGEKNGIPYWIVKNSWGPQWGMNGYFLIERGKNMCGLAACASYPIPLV

Cathepsin B = Cathepsin B (Homo sapiens, UniProt P07858); test: Inhibition constant against human cathepsin B in fluorescence assay using Cbz-Phe-Arg-AMC
Cathepsin K [2] = target: T1, Cathepsin K; test: Inhibition constant against human cathepsin K in fluorescence assay using Cbz-Phe-Arg-AMC
Cathepsin K [3] = target: T3, Cathepsin K (Rattus norvegicus, UniProt O35186); test: Inhibition constant against rat cathepsin K
T3 sequence (O35186 whole entry): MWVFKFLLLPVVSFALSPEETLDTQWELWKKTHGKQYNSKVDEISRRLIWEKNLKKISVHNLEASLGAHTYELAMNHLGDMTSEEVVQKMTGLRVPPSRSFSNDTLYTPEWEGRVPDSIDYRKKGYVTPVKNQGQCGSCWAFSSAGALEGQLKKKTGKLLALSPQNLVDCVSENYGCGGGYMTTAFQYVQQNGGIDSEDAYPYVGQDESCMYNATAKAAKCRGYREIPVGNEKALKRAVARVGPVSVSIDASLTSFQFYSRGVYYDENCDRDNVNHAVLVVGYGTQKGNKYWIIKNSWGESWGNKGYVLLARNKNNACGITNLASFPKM

Procathepsin L, sequence (P07711 whole entry): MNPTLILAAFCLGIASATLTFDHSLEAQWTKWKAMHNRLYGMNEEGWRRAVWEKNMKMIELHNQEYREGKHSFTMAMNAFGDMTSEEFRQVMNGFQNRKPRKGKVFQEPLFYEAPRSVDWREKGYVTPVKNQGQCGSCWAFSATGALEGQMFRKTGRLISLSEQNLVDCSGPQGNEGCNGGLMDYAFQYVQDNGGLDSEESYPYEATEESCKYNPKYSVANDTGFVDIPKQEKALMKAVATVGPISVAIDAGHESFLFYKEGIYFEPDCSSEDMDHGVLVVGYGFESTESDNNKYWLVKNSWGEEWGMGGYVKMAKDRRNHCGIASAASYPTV

| Structure (SMILES) | Ki (Cathepsin K [2]) | further results |
| --- | --- | --- |
| C[C@@H](CC1CCCCC1)OC(=O)[C@@H]1CCCN1C#N | – | Ki (Cathepsin K [1]): 1.8 nM |
| C[C@@H](CC1CCCCC1)OC(=O)CN(C)C#N | 26 nM | Ki (Procathepsin L): 1500 nM; Ki (Pro-cathepsin H): > 13000 nM; Ki (Cathepsin B): 2600 nM |
| C[C@@H](CC1CCCCC1)OC(=O)[C@H](C)N(C)C#N | 2300 nM | – |
| C[C@H](C#N)NC(=O)O[C@@H](C)CC1CCCCC1 | > 13000 nM | – |
| CCCCN(C#N)NC(=O)O[C@@H](C)CC1CCCCC1 | 0.007 nM | – |
| C[C@@H](CC1CCCCC1)OC(=O)NN(C)C#N | 0.009 nM | Ki (Procathepsin L): 0.025 nM; Ki (Pro-cathepsin H): 1.4 nM; Ki (Cathepsin B): 0.077 nM |
| CCN(C#N)NC(=O)O[C@@H](C)CC1CCCCC1 | 0.003 nM | – |
| C[C@@H](C#N)NC(=O)O[C@@H](C)CC1CCCCC1 | > 13000 nM | – |
| C[C@H](C(=O)O[C@@H](C)CC1CCCCC1)N(C)C#N | > 13000 nM | – |
| C[C@@H](CC1CCCCC1)OC(=O)NCC#N | 7900 nM | – |
| CC[C@@H](Cc1ccccc1)OC(=O)NN(C)C#N | 0.032 nM | Ki (Procathepsin L): 0.036 nM; Ki (Cathepsin B): 0.25 nM; Ki (Cathepsin K [3]): 0.072 nM |
| C[C@@H](CC1CCCCC1)OC(=O)NN(C#N)C(C)(C)C | 1500 nM | – |
| CC(C)CN(C#N)NC(=O)O[C@@H](C)CC1CCCCC1 | 0.004 nM | – |
| CCCN(C#N)NC(=O)O[C@@H](C)CC1CCCCC1 | 0.004 nM | – |
| C[C@@H](CC1CCCCC1)OC(=O)N(C)N(C)C#N | 62 nM | – |
| CC(C)(C)OC(=O)[C@@H]1CCCN1C#N | – | Ki (Cathepsin K [1]): 60 nM |
| C[C@@H](CC1CCCCC1)NC(=O)CN(C)C#N | 830 nM | – |
| CC(C)N(C#N)NC(=O)O[C@@H](C)CC1CCCCC1 | 0.019 nM | Ki (Procathepsin L): 0.79 nM; Ki (Pro-cathepsin H): 0.46 nM; Ki (Cathepsin B): 1.3 nM |
| C[C@@H](CC1CCCCC1)OC(=O)NN(C#N)Cc1ccccc1 | 0.006 nM | – |
| N#CN1CCCC1 [CYANO-PYRROLIDINE] | – | Ki (Cathepsin K [1]): 2100 nM |
